# Reference: patent publication US9464078B2, “Monohydrate of azaadamantane derivatives” (AbbVie Inc., priority 2010, dated 2016)
# Structures can show the parent of a compound that is named as a salt. Where two headings read alike, the source gives them in different places.
# Tests used:
# Assay type in all cases: physicochemical
# [1] = hygroscopicity by dynamic moisture sorption balance
# Protocol: Dynamic moisture sorption balance (DMSB) was used to evaluate the hygroscopicity of the crystalline monohydrate compound. The hygroscopicity was evaluated using a dynamic moisture sorption balance (IGAsorp, Hiden Isochema) equipped with a data analyzer. The balance was calibrated using standardized weights of 20, 50, and 100 mg. The RH probe was calibrated using standardized salt solutions of lithium chloride, potassium carbonate, and sodium chloride. During the experiment, the flow rate of nitrogen gas at different relative humidity was 250 mL/min. For anhydrous materials, the sample was first dried with dry nitrogen at 50° C. for two hours. The temperature was then set to 25° C. and the relative humidity was changed from 0% to 90% and back to 0% at 10% intervals. For hydrated samples the temperature was set to 25° C. and the relative humidity was changed at 10% intervals from 30% to 90%, back to 10%, and then to 90%. For each step described herein, a one hour equilibration time period was used.
# [2] = solubility in water
# [3] = critical water activity for hydrate formation (PXRD of solids from methanol/water suspensions); settings: ambient temperature
# From the text: The critical water activity of the monohydrate salt can be determined by mixing different ratios of organic solvents and water. The analysis of the water activity for these solvent mixtures are temperature dependent. Determination of the critical water activity typically comprises the following steps: (1) preparation of solvent mixtures with a range of water activities; (2) saturation of the organic solvent/water mixtures with the monohydrate salt; (3) the optional filtration of the saturated solution; (4) addition of a 1:1 solid mixture (e.g., 25 mg/phase) of the anhydrous and hydrated phases to the saturated organic solvent/water mixtures; (5) equilibration at the temperature of interest (3-5 days); and (6) analysis of the residual solids by the appropriate technique, as understood by one skilled in the art (e.g., PXRD) to determine the identity of the stable phases.
# The inventors determined the critical water activity for (4s)-4-(5-phenyl-1,3,4-thiadiazol-2-yloxy)-1-azatricyclo[3.3.1.1^3,7]decane dihydrogen citrate monohydrate at ambient temperature. Specifically, the inventors developed suspensions of the crystalline product in mixtures of methanol and water, with water activities of 0.20, 0.15, 0.10, and 0.05, performing powder X-ray diffraction patterns for each suspension, respectively. […]
compound,measurement,setting,value
"c1ccc(-c2nnc(O[C@@H]3C4CC5C[C@H]3C[N@](C5)C4)s2)cc1 [dihydrogen citrate monohydrate, (4s)-4-(5-phenyl-1,3,4-thiadiazol-2-yloxy)-1-azatricyclo[3.3.1.1^3,7]decane dihydrogen citrate monohydrate]",hygroscopicity (in words),[1]; citrate monohydrate,non-hygroscopic
same,hygroscopicity (in words),"[1]; listed as crystalline monohydrate of (4s)-4-(5-phenyl-1,3,4-thiadiazol-2-yloxy)-1-azatricy, citrate monohydrate",non-hygroscopic
same,weight change by dynamic moisture sorption,"[1]; relative humidities from 0% to 90%, listed as crystalline monohydrate of (4s)-4-(5-phenyl-1,3,4-thiadiazol-2-yloxy)-1-azatricy, citrate monohydrate",< 0.2%
"c1ccc(-c2nnc(O[C@@H]3C4CC5C[C@H]3C[N@](C5)C4)s2)cc1 [dihydrogen citrate anhydrate, (4s)-4-(5-phenyl-1,3,4-thiadiazol-2-yloxy)-1-azatricyclo[3.3.1.1^3,7]decane dihydrogen citrate]",solubility,[2],28 mg/mL
same,hygroscopicity (in words),[1],non-hygroscopicity
"c1ccc(-c2nnc(O[C@@H]3C4CC5C[C@H]3C[N@](C5)C4)s2)cc1 [(4s)-4-(5-phenyl-1,3,4-thiadiazol-2-yloxy)-1-azatricyclo[3.3.1.1^3,7]decane dihydrogen citrate]",water activity of solvent at which the salt exists as the anhydrate,[3],≤ 0.10
same,water activity of solvent at which the salt exists as the monohydrate,[3],≥ 0.15
